Reference: patent US20110142882A1 (priority 2009, published 2011)

System: small (about 50 μm-about 90 μm) arterioles of the cremaster muscle
Set-up: species or system male Sprague-Dawley rats
Details: rat, in vivo

Question: Which “effect on microvessel diameter” value does the source give for `CC[N+](CC)(CC)CCOc1cccc(OCC[N+](CC)(CC)CC)c1OCC[N+](CC)(CC)CC` [gallamine triethiodide] here?
Answer: Significant vasoconstriction

Question: What about the “vasodilation over time (time-dependent effects control)” value of the same compound?
Answer: No vasodilation
